Among the data in the NIST ThermoML archive (doi:10.1021/acs.jced.7b00761) are viscosity and mass density values, retold here.

One may read the viscosity as the internal friction of a fluid under shear. The term mass density denotes the mass of a sample divided by its volume.

The nature of this series: wn = mass fraction of the nth substance listed. Particulars: 313 K, 101.3 kPa, Liquid, w1 = 0.3.

± gives the expanded uncertainty stated by the source.

Consider `CCNCCO` [2-(ethylamino)ethanol] + CCN(CC)CCO, for which the viscosity (Vibrating wire viscometry) worked out at 3.83 ± 0.21 mPa·s. Besides, the mass density (petroleum hydrometers) was 879 ± 3 kg/m3.
